Numbers after ± are expanded uncertainties.
Test: molar heat capacity at constant pressure
Details: 101.33 kPa, Vacuum adiabatic calorimetry

O=P([O-])([O-])[O-].[Cs+].[Mn+2] [cesium manganese(II) phosphate]
Details | molar heat capacity at constant pressure [J/K/mol]
5 K, Crystal 3 | 1.713 ± 0.075
5.85 K, Crystal 3 | 2.328 ± 0.17
6 K, Crystal 3 | 2.918 ± 0.12
6.04 K, Crystal 3 | 3.492 ± 0.17
6.34 K, Crystal 3 | 4.989 ± 0.39
6.38 K, Crystal 3 | 5.654 ± 0.42
6.59 K, Crystal 3 | 21.87 ± 1.1
6.73 K, Crystal 3 | 13.64 ± 1.5
6.86 K, Crystal 3 | 41.07 ± 4.6
6.9 K, Crystal 2 | 4.573 ± 0.18
6.9 K, Crystal 3 | 4.282 ± 0.17
7 K, Crystal 2 | 4.623 ± 0.19
7.01 K, Crystal 2 | 15.8 ± 0.91
7.32 K, Crystal 2 | 9.146 ± 0.42
7.33 K, Crystal 2 | 6.236 ± 0.34
7.8 K, Crystal 2 | 5.986 ± 0.24
8 K, Crystal 2 | 4.972 ± 0.2
8.09 K, Crystal 2 | 5.321 ± 0.25
8.15 K, Crystal 2 | 5.82 ± 0.23
8.3 K, Crystal 2 | 5.488 ± 0.22
8.79 K, Crystal 2 | 5.238 ± 0.22
9 K, Crystal 2 | 5.271 ± 0.22
9.13 K, Crystal 2 | 5.488 ± 0.25
9.54 K, Crystal 2 | 5.404 ± 0.22
9.95 K, Crystal 2 | 5.654 ± 0.25
10 K, Crystal 2 | 5.579 ± 0.22
10.3 K, Crystal 2 | 5.654 ± 0.23
11.03 K, Crystal 2 | 5.903 ± 0.24
11.57 K, Crystal 2 | 6.319 ± 0.26
12.47 K, Crystal 2 | 6.818 ± 0.27
12.55 K, Crystal 2 | 6.901 ± 0.28
13.98 K, Crystal 2 | 7.816 ± 0.32
15 K, Crystal 2 | 8.647 ± 0.33
15.39 K, Crystal 2 | 8.98 ± 0.083
16.79 K, Crystal 2 | 10.24 ± 0.12
18.22 K, Crystal 2 | 11.6 ± 0.13
19.65 K, Crystal 2 | 12.95 ± 0.14
20 K, Crystal 2 | 13.29 ± 0.15
20.79 K, Crystal 2 | 14.05 ± 0.16
21.93 K, Crystal 2 | 15.15 ± 0.17
23.17 K, Crystal 2 | 16.48 ± 0.17
24.41 K, Crystal 2 | 17.81 ± 0.19
25 K, Crystal 2 | 18.42 ± 0.2
26.16 K, Crystal 2 | 19.68 ± 0.21
27.91 K, Crystal 2 | 21.56 ± 0.22
29.7 K, Crystal 2 | 23.55 ± 0.25
30 K, Crystal 2 | 23.85 ± 0.25
30.98 K, Crystal 2 | 25 ± 0.26
31.52 K, Crystal 2 | 25.55 ± 0.27
32.86 K, Crystal 2 | 26.96 ± 0.27
34.2 K, Crystal 2 | 28.45 ± 0.29
35 K, Crystal 2 | 29.29 ± 0.3
36 K, Crystal 2 | 30.31 ± 0.32
37.79 K, Crystal 2 | 32.15 ± 0.33
39.59 K, Crystal 2 | 33.82 ± 0.35
40 K, Crystal 2 | 34.22 ± 0.35
41.48 K, Crystal 2 | 35.49 ± 0.22
43.18 K, Crystal 2 | 36.82 ± 0.23
45 K, Crystal 2 | 38.16 ± 0.24
45.05 K, Crystal 2 | 38.3 ± 0.24
46.84 K, Crystal 2 | 39.62 ± 0.25
48.73 K, Crystal 2 | 41.07 ± 0.26
50 K, Crystal 2 | 42.05 ± 0.27
50.55 K, Crystal 2 | 42.5 ± 0.27
52.38 K, Crystal 2 | 44 ± 0.28
54.21 K, Crystal 2 | 45.4 ± 0.29
56.04 K, Crystal 2 | 46.79 ± 0.3
57.87 K, Crystal 2 | 48.08 ± 0.31
59.7 K, Crystal 2 | 49.36 ± 0.32
60 K, Crystal 2 | 49.65 ± 0.32
61.53 K, Crystal 2 | 50.69 ± 0.32
63.37 K, Crystal 2 | 52 ± 0.33
65.2 K, Crystal 2 | 53.24 ± 0.33
67.03 K, Crystal 2 | 54.47 ± 0.34
68.87 K, Crystal 2 | 55.66 ± 0.35
70 K, Crystal 2 | 56.41 ± 0.36
70.7 K, Crystal 2 | 56.85 ± 0.36
72.42 K, Crystal 2 | 57.92 ± 0.37
73.98 K, Crystal 2 | 58.82 ± 0.37
75.54 K, Crystal 2 | 59.72 ± 0.37
76.62 K, Crystal 2 | 60.35 ± 0.38
77.7 K, Crystal 2 | 60.98 ± 0.38
78.93 K, Crystal 2 | 61.69 ± 0.39
79.65 K, Crystal 2 | 62.09 ± 0.39
80 K, Crystal 2 | 62.23 ± 0.39
80.15 K, Crystal 2 | 62.42 ± 0.39
81.49 K, Crystal 2 | 63.07 ± 0.4
82.19 K, Crystal 2 | 63.43 ± 0.4
82.8 K, Crystal 2 | 63.72 ± 0.4
84.9 K, Crystal 2 | 64.7 ± 0.41
87.44 K, Crystal 2 | 66.08 ± 0.42
89.1 K, Crystal 2 | 66.98 ± 0.42
90 K, Crystal 2 | 67.48 ± 0.45
92.52 K, Crystal 2 | 68.77 ± 0.46
95.06 K, Crystal 2 | 70.08 ± 0.47
97.6 K, Crystal 2 | 71.4 ± 0.47
99.96 K, Crystal 2 | 72.65 ± 0.47
100 K, Crystal 2 | 72.69 ± 0.47
102.68 K, Crystal 2 | 74.12 ± 0.48
105.79 K, Crystal 2 | 75.84 ± 0.5
108.49 K, Crystal 2 | 77.53 ± 0.51
110 K, Crystal 2 | 78.18 ± 0.51
110.3 K, Crystal 2 | 78.39 ± 0.51
111.89 K, Crystal 2 | 79.04 ± 0.52
112.89 K, Crystal 2 | 79.62 ± 0.52
113.69 K, Crystal 2 | 80.09 ± 0.52
115.29 K, Crystal 2 | 81.13 ± 0.52
116.83 K, Crystal 2 | 82.04 ± 0.53
118.24 K, Crystal 2 | 82.7 ± 0.53
119.21 K, Crystal 2 | 83.23 ± 0.5
120 K, Crystal 2 | 83.73 ± 0.58
120.39 K, Crystal 2 | 84.89 ± 0.58
123.17 K, Crystal 2 | 91.87 ± 0.58
124.56 K, Crystal 2 | 100.77 ± 0.67
125.56 K, Crystal 2 | 106.26 ± 0.67
126.99 K, Crystal 2 | 117.73 ± 0.75
127 K, Crystal 1 | 86.55 ± 0.58
127 K, Crystal 2 | 86.55 ± 0.58
128.36 K, Crystal 1 | 113.16 ± 0.75
128.73 K, Crystal 1 | 107.76 ± 0.75
130 K, Crystal 1 | 87.8 ± 0.58
130.58 K, Crystal 1 | 93.29 ± 0.58
131.88 K, Crystal 1 | 89.3 ± 0.58
132.69 K, Crystal 1 | 88.3 ± 0.58
133.47 K, Crystal 1 | 88.38 ± 0.58
134.22 K, Crystal 1 | 88.8 ± 0.58
135.31 K, Crystal 1 | 89.3 ± 0.58
136.46 K, Crystal 1 | 89.88 ± 0.58
137.83 K, Crystal 1 | 90.46 ± 0.58
138.61 K, Crystal 1 | 90.79 ± 0.58
139.44 K, Crystal 1 | 91.13 ± 0.58
140 K, Crystal 1 | 91.54 ± 0.58
140.05 K, Crystal 1 | 91.46 ± 0.58
141.84 K, Crystal 1 | 92.21 ± 0.58
143.65 K, Crystal 1 | 92.87 ± 0.58
146.58 K, Crystal 1 | 93.95 ± 0.58
149.52 K, Crystal 1 | 95.03 ± 0.58
150 K, Crystal 1 | 95.37 ± 0.58
152.45 K, Crystal 1 | 96.2 ± 0.58
155.39 K, Crystal 1 | 97.36 ± 0.58
158.13 K, Crystal 1 | 98.36 ± 0.67
160 K, Crystal 1 | 99.03 ± 0.67
160.88 K, Crystal 1 | 99.36 ± 0.67
163.62 K, Crystal 1 | 100.44 ± 0.67
166.37 K, Crystal 1 | 101.44 ± 0.67
168.91 K, Crystal 1 | 102.35 ± 0.67
170 K, Crystal 1 | 102.68 ± 0.67
171.45 K, Crystal 1 | 103.27 ± 0.67
174.38 K, Crystal 1 | 104.26 ± 0.67
177.32 K, Crystal 1 | 105.26 ± 0.67
180 K, Crystal 1 | 106.18 ± 0.67
180.25 K, Crystal 1 | 106.26 ± 0.67
183.19 K, Crystal 1 | 107.26 ± 0.67
186.12 K, Crystal 1 | 108.17 ± 0.67
189.06 K, Crystal 1 | 109.17 ± 0.67
190 K, Crystal 1 | 109.58 ± 0.67
191.79 K, Crystal 1 | 110.08 ± 0.67
194.53 K, Crystal 1 | 111 ± 0.67
197.27 K, Crystal 1 | 111.91 ± 0.75
199.58 K, Crystal 1 | 112.58 ± 0.75
200 K, Crystal 1 | 112.74 ± 0.75
201.38 K, Crystal 1 | 113.08 ± 0.75
203.92 K, Crystal 1 | 113.83 ± 0.75
206.38 K, Crystal 1 | 114.57 ± 0.75
209.38 K, Crystal 1 | 115.65 ± 0.75
210 K, Crystal 1 | 115.82 ± 0.75
212.32 K, Crystal 1 | 116.57 ± 0.75
215.39 K, Crystal 1 | 117.48 ± 0.75
218.18 K, Crystal 1 | 118.31 ± 0.75
219.88 K, Crystal 1 | 118.73 ± 0.75
220 K, Crystal 1 | 118.81 ± 0.75
221.58 K, Crystal 1 | 119.23 ± 0.75
224.09 K, Crystal 1 | 119.98 ± 0.75
226.59 K, Crystal 1 | 120.73 ± 0.75
229.5 K, Crystal 1 | 121.56 ± 0.75
230 K, Crystal 1 | 121.56 ± 0.75
232.41 K, Crystal 1 | 122.39 ± 0.75
235.32 K, Crystal 1 | 123.3 ± 0.75
238.23 K, Crystal 1 | 124.22 ± 0.75
240 K, Crystal 1 | 124.3 ± 0.75

Reference: the NIST ThermoML archive (doi:10.1016/j.jct.2014.06.012)
